Laboratory results as given in BindingDB's records for doi:10.1016/0960-894X(95)00417-R (1995).

What was measured:
[1] = Tested in vitro for receptor binding affinity to 5-hydroxytryptamine 1D receptor in bovine caudate using [3H]5-HT radioligand
[2] = Compound was tested for the inhibition of forskolin-stimulated adenylate cyclase at 5-hydroxytryptamine 1A receptor in guinea pig

SMILES	IC50 [1] [nM]	EC50 [2] [nM]
CN1CCC[C@@H]1Cc1c[nH]c2ccc(-n3cnc4cc(C#N)ccc43)cc12 [CP-161242]	1.3	26
CN(C)CCc1c[nH]c2ccc(-n3cnc4cccnc43)cc12 [[2-(5-Imidazo[4,5-b]pyridin-3-yl-1H-indol-3-yl)-ethyl]-dimethyl-amine]	11	460
